Legend:
[1] = target: T1, Metabotropic glutamate receptor 5 (Rattus norvegicus, UniProt P31424); experiment: Displacement of [3H]-M-MPEP from rat cerebrocortical mGluR5 receptor
[2] = target: T1, Metabotropic glutamate receptor 5; experiment: Negative allosteric modulation of mGlu5 receptor in primary E17 rat embryo neuron assessed as ca2+ level by fluo-4/AM assay
[3] = tested on: Liver microsome; experiment: Intrinsic clearance in human liver microsomes measured per gram of tissue at 2.5 uM; assay type: ADME
[4] = tested on: Liver microsome; experiment: Intrinsic clearance in Wistar rat liver microsomes measured per gram of tissue at 2.5 uM; assay type: ADME

T1 sequence (P31424 whole entry): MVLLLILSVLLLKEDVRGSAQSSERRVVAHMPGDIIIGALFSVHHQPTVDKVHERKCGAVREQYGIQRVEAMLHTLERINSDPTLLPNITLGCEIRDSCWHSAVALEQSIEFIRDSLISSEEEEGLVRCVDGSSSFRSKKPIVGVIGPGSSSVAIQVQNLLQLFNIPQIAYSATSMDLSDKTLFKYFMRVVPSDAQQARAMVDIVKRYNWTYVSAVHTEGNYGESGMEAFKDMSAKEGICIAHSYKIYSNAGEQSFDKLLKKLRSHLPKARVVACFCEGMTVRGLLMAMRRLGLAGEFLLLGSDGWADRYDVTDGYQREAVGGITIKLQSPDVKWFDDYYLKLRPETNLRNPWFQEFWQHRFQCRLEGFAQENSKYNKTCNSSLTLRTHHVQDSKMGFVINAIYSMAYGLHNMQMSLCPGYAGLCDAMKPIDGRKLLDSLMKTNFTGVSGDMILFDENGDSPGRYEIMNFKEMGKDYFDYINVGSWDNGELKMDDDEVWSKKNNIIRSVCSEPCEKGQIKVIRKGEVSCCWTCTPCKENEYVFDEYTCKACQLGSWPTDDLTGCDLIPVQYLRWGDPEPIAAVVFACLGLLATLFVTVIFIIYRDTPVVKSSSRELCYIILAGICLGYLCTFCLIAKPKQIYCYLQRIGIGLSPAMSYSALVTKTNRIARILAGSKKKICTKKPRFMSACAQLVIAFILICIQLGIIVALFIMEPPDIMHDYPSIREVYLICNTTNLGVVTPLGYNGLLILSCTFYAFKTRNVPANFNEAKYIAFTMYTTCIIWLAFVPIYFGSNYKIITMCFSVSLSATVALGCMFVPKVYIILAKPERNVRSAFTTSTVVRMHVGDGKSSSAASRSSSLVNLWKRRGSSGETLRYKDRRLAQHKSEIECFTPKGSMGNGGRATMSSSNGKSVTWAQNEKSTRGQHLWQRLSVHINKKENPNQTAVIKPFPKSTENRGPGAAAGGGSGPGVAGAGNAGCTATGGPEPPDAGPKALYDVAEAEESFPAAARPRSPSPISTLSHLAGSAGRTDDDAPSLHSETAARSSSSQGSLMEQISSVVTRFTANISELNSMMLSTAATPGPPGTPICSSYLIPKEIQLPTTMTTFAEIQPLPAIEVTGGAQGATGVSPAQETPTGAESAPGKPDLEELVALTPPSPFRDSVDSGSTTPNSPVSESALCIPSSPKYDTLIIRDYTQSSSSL

O=S(=O)(c1ccc(Cl)cc1)c1sc2nc(F)ccc2c1-c1ccc(Cl)cc1
Ki [1]: 26 nM
IC50 [2]: 172 nM
CLH [3]: 0.1 mL/min/g
CLH [4]: 3.8 mL/min/g

CC(C)c1ccc(S(=O)(=O)c2sc3ncccc3c2-c2ccc(Cl)cc2)cc1
Ki [1]: 66 nM

N#Cc1cc(F)cc(S(=O)(=O)c2sc3ncc(N)cc3c2-c2ccccc2F)c1
Ki [1]: 1.5 nM
IC50 [2]: 1.6 nM
CLH [3]: 1.1 mL/min/g
CLH [4]: 2.5 mL/min/g

N#Cc1cc(F)cc(S(=O)(=O)c2sc3nc(Cl)ccc3c2-c2ccc(F)cc2)c1
Ki [1]: 20 nM
CLH [3]: 0.6 mL/min/g
CLH [4]: 2.1 mL/min/g

N#Cc1cccc(S(=O)(=O)c2sc3ncccc3c2-c2ccccc2Cl)c1
Ki [1]: 3.5 nM
CLH [3]: 3.2 mL/min/g
CLH [4]: 11.2 mL/min/g

O=S(=O)(c1ccc(Cl)cc1)c1sc2ncccc2c1-c1ccc(F)cc1
Ki [1]: 22 nM
IC50 [2]: 92 nM
CLH [3]: 3.4 mL/min/g
CLH [4]: 13.6 mL/min/g

Nc1cnc2sc(S(=O)(=O)c3ccc(Cl)cc3)c(-c3ccc(Cl)cc3)c2c1
Ki [1]: 19.1 nM
IC50 [2]: 77 nM
CLH [3]: 1.6 mL/min/g
CLH [4]: 0.7 mL/min/g

O=S(=O)(c1ccc(Cl)cc1)c1sc2ncccc2c1-c1ccccc1F
Ki [1]: 51 nM
IC50 [2]: 135 nM
CLH [3]: 2.4 mL/min/g
CLH [4]: 4.1 mL/min/g

Cc1cccc(S(=O)(=O)c2sc3ncccc3c2-c2ccc(Cl)cc2)c1
Ki [1]: 9.3 nM

N#Cc1cc(F)cc(S(=O)(=O)c2sc3ncc(N)cc3c2-c2cnccc2F)c1
Ki [1]: 15.2 nM
IC50 [2]: 18 nM
CLH [3]: 0.6 mL/min/g
CLH [4]: 0.7 mL/min/g

Cc1cccc(-c2c(S(=O)(=O)c3cccc(C#N)c3)sc3ncccc23)c1
Ki [1]: 14.2 nM
IC50 [2]: 44 nM
CLH [3]: 3.3 mL/min/g
CLH [4]: 17.7 mL/min/g

Cc1ccc(S(=O)(=O)c2sc3ncccc3c2-c2ccc(Cl)cc2)cc1Cl
Ki [1]: 6.8 nM

N#Cc1ccc(S(=O)(=O)c2sc3ncccc3c2-c2ccc(Cl)cc2)cc1
Ki [1]: 36 nM

N#Cc1cccc(S(=O)(=O)c2sc3ncc(N)cc3c2-c2ccc(Cl)cc2)c1
Ki [1]: 9 nM
CLH [3]: 1.6 mL/min/g
CLH [4]: 0.4 mL/min/g

Cc1ccc(S(=O)(=O)c2sc3ncccc3c2-c2ccc(Cl)cc2)cc1C
Ki [1]: 3.3 nM

O=S(=O)(c1ccc(Cl)cc1)c1sc2ncccc2c1-c1ccccc1Cl
Ki [1]: 64 nM
IC50 [2]: 172 nM
CLH [3]: 2.8 mL/min/g
CLH [4]: 3.7 mL/min/g

Cc1cc(C)cc(S(=O)(=O)c2sc3ncccc3c2-c2ccc(Cl)cc2)c1
Ki [1]: 24 nM

N#Cc1cccc(S(=O)(=O)c2sc3ncccc3c2-c2cccc(Cl)c2)c1
Ki [1]: 14.3 nM
IC50 [2]: 45 nM
CLH [3]: 2.6 mL/min/g
CLH [4]: 10.8 mL/min/g

N#Cc1cc(F)cc(S(=O)(=O)c2sc3ncccc3c2-c2ccc(Cl)cc2)c1
Ki [1]: 2 nM
IC50 [2]: 18 nM
CLH [3]: 1.4 mL/min/g
CLH [4]: 3.4 mL/min/g

O=S(=O)(c1cccc(C(F)(F)F)c1)c1sc2ncccc2c1-c1ccc(Cl)cc1
Ki [1]: 54 nM

Nc1cnc2sc(S(=O)(=O)c3ccc(Cl)cc3)c(-c3ccccc3F)c2c1
Ki [1]: 58 nM
CLH [3]: 1.9 mL/min/g
CLH [4]: 2.8 mL/min/g

N#Cc1cccc(S(=O)(=O)c2sc3nc(O)ccc3c2-c2ccc(Cl)cc2)c1
Ki [1]: 39 nM
IC50 [2]: 46 nM
CLH [3]: 0.4 mL/min/g
CLH [4]: 1.1 mL/min/g

O=S(=O)(c1cccnc1)c1sc2ncccc2c1-c1ccc(Cl)cc1
Ki [1]: 289 nM

N#Cc1cc(F)cc(S(=O)(=O)c2sc3ncccc3c2-c2cccc(F)c2)c1
Ki [1]: 2.2 nM
IC50 [2]: 2.4 nM
CLH [3]: 1.5 mL/min/g
CLH [4]: 2.4 mL/min/g

N#Cc1cccc(S(=O)(=O)c2sc3ncc(N)cc3c2-c2ccccc2F)c1
Ki [1]: 1.8 nM
CLH [3]: 0.6 mL/min/g
CLH [4]: 2.5 mL/min/g

O=S(=O)(c1ccc(F)cc1)c1sc2ncccc2c1-c1ccc(Cl)cc1
Ki [1]: 15.6 nM

N#Cc1cc(F)cc(S(=O)(=O)c2sc3ncccc3c2-c2ccccc2F)c1
Ki [1]: 1.1 nM
IC50 [2]: 1.5 nM
CLH [3]: 2.4 mL/min/g
CLH [4]: 3.5 mL/min/g

N#Cc1cc(F)cc(S(=O)(=O)c2sc3nc(F)ccc3c2-c2cccc(F)c2)c1
Ki [1]: 2.5 nM
IC50 [2]: 4.9 nM
CLH [3]: 0.6 mL/min/g
CLH [4]: 2.9 mL/min/g

N#Cc1cc(F)cc(S(=O)(=O)c2sc3ncc(N)cc3c2-c2cccc(Cl)c2)c1
IC50 [2]: 38 nM
CLH [3]: 0.9 mL/min/g
CLH [4]: 1.5 mL/min/g

N#Cc1cc(F)cc(S(=O)(=O)c2sc3ncc(N)cc3c2-c2c(F)cncc2F)c1
Ki [1]: 19 nM
CLH [3]: 0.4 mL/min/g
CLH [4]: 0.8 mL/min/g

Cc1ccc(-c2c(S(=O)(=O)c3ccc(Cl)cc3)sc3ncccc23)cc1
Ki [1]: 21 nM
IC50 [2]: 111 nM
CLH [3]: 3.9 mL/min/g
CLH [4]: 15.7 mL/min/g

N#Cc1cc(F)cc(S(=O)(=O)c2sc3ncccc3c2-c2cnccc2F)c1
Ki [1]: 13.6 nM
IC50 [2]: 22 nM
CLH [3]: 0.9 mL/min/g
CLH [4]: 1 mL/min/g

O=S(=O)(c1ccc(Cl)cc1)c1sc2ncccc2c1-c1ccc(F)cc1F
Ki [1]: 27 nM
CLH [3]: 3.3 mL/min/g
CLH [4]: 11.1 mL/min/g

O=S(=O)(c1ccc(Cl)cc1)c1sc2ncc(F)cc2c1-c1ccc(Cl)cc1
Ki [1]: 124 nM
CLH [3]: 0.3 mL/min/g
CLH [4]: 1.7 mL/min/g

O=S(=O)(c1ccc(C(F)(F)F)cc1)c1sc2ncccc2c1-c1ccc(Cl)cc1
Ki [1]: 272 nM

O=S(=O)(c1cccc(F)c1)c1sc2ncccc2c1-c1ccc(Cl)cc1
Ki [1]: 43 nM

N#Cc1cc(F)cc(S(=O)(=O)c2sc3ncc(N)cc3c2-c2ccc(Cl)cc2)c1
Ki [1]: 2.2 nM
IC50 [2]: 30 nM
CLH [3]: 1.3 mL/min/g
CLH [4]: 1 mL/min/g

O=S(=O)(c1ccc(Cl)cc1)c1sc2ncccc2c1-c1cccc(F)c1
Ki [1]: 38 nM
IC50 [2]: 123 nM
CLH [3]: 2.3 mL/min/g
CLH [4]: 4.1 mL/min/g

O=S(=O)(c1cc(F)cc(C(F)(F)F)c1)c1sc2ncccc2c1-c1ccc(Cl)cc1
Ki [1]: 41 nM

COc1cccc(S(=O)(=O)c2sc3ncccc3c2-c2ccc(Cl)cc2)c1
Ki [1]: 9.5 nM

O=S(=O)(c1ccc(Cl)cc1)c1sc2ncccc2c1-c1cccc(Cl)c1
Ki [1]: 37 nM
CLH [3]: 1.3 mL/min/g
CLH [4]: 2.8 mL/min/g

Cc1ccc(S(=O)(=O)c2sc3ncccc3c2-c2ccc(Cl)cc2)cc1
Ki [1]: 15.4 nM

N#Cc1cc(F)cc(S(=O)(=O)c2sc3ncc(N)cc3c2-c2ccncc2F)c1
Ki [1]: 44 nM
IC50 [2]: 44 nM
CLH [3]: 0.3 mL/min/g
CLH [4]: 0.5 mL/min/g

COc1ccc2c(-c3ccc(Cl)cc3)c(S(=O)(=O)c3ccc(Cl)cc3)sc2n1
Ki [1]: 652 nM
CLH [3]: 0.01 mL/min/g
CLH [4]: 2.6 mL/min/g

N#Cc1cccc(S(=O)(=O)c2sc3ncc(N)cc3c2-c2cccc(F)c2)c1
Ki [1]: 4.2 nM
CLH [3]: 0.01 mL/min/g
CLH [4]: 0.01 mL/min/g

N#Cc1cccc(S(=O)(=O)c2sc3ncc(N)cc3c2-c2cccc(Cl)c2)c1
Ki [1]: 14.3 nM
CLH [3]: 0.01 mL/min/g
CLH [4]: 0.01 mL/min/g

COc1ccc(S(=O)(=O)c2sc3ncccc3c2-c2ccc(Cl)cc2)cc1
Ki [1]: 20 nM

N#Cc1cc(F)cc(S(=O)(=O)c2sc3ncc(N)cc3c2-c2cc(F)cc(F)c2)c1
Ki [1]: 2.4 nM
IC50 [2]: 6.1 nM
CLH [3]: 0.8 mL/min/g
CLH [4]: 1.04 mL/min/g

CN(C)c1ccc(S(=O)(=O)c2sc3ncccc3c2-c2ccc(Cl)cc2)cc1
Ki [1]: 52 nM

N#Cc1cccc(S(=O)(=O)c2sc3nc(F)ccc3c2-c2ccc(Cl)cc2)c1
Ki [1]: 8.3 nM
IC50 [2]: 48 nM
CLH [3]: 1 mL/min/g
CLH [4]: 1.4 mL/min/g

N#Cc1cc(F)cc(S(=O)(=O)c2sc3ncccc3c2-c2cccc(Cl)c2)c1
Ki [1]: 8.9 nM
IC50 [2]: 11 nM
CLH [3]: 2.6 mL/min/g
CLH [4]: 2 mL/min/g

O=S(=O)(c1ccc(Cl)cc1)c1sc2ncc(Cl)cc2c1-c1ccc(Cl)cc1
Ki [1]: 69 nM
IC50 [2]: 363 nM
CLH [3]: 0.01 mL/min/g
CLH [4]: 2.8 mL/min/g

N#Cc1cccc(S(=O)(=O)c2sc3ncc(N)cc3c2-c2ccc(F)cc2)c1
Ki [1]: 8.8 nM
CLH [3]: 1.3 mL/min/g
CLH [4]: 3.8 mL/min/g

O=S(=O)(c1ccc(Cl)c(Cl)c1)c1sc2ncccc2c1-c1ccc(Cl)cc1
Ki [1]: 10.7 nM

O=S(=O)(c1cccc(Cl)c1)c1sc2ncccc2c1-c1ccc(Cl)cc1
Ki [1]: 15.9 nM

O=S(=O)(c1ccccc1)c1sc2ncccc2c1-c1ccc(Cl)cc1
Ki [1]: 96 nM

O=S(=O)(c1ccc(Cl)cc1Cl)c1sc2ncccc2c1-c1ccc(Cl)cc1
Ki [1]: 105 nM

O=C(Nc1cccc(Cl)c1)O/N=C1\CCCCC1Cc1cccs1 (centres undefined)
Ki [1]: 9.1 nM

O=S(=O)(c1ccc(Cl)cc1)c1sc2ncccc2c1-c1ccc(Cl)c(Cl)c1
Ki [1]: 31 nM
CLH [3]: 2.5 mL/min/g
CLH [4]: 9.7 mL/min/g

O=S(=O)(c1ccc(Cl)cc1)c1sc2ncccc2c1-c1cnccc1F
Ki [1]: 61 nM
CLH [3]: 2.6 mL/min/g
CLH [4]: 10.5 mL/min/g

O=S(=O)(c1ccc(Cl)cc1)c1sc2nccc(F)c2c1-c1ccc(Cl)cc1
Ki [1]: 214 nM
CLH [3]: 3.6 mL/min/g
CLH [4]: 12.1 mL/min/g

COc1ccc(-c2c(S(=O)(=O)c3cccc(C#N)c3)sc3ncccc23)cc1
Ki [1]: 23 nM
CLH [3]: 2.7 mL/min/g
CLH [4]: 13.5 mL/min/g

Cc1ccc(-c2c(S(=O)(=O)c3cccc(C#N)c3)sc3ncccc23)cc1
Ki [1]: 3 nM
CLH [3]: 3.3 mL/min/g
CLH [4]: 17.3 mL/min/g

CS(=O)(=O)Nc1cnc2sc(S(=O)(=O)c3ccc(Cl)cc3)c(-c3ccc(Cl)cc3)c2c1
Ki [1]: 166 nM
CLH [3]: 0.4 mL/min/g
CLH [4]: 1.1 mL/min/g

O=S(=O)(c1cc(F)cc(F)c1)c1sc2ncccc2c1-c1ccc(Cl)cc1
Ki [1]: 36 nM

CN(C)c1ccnc2sc(S(=O)(=O)c3ccc(Cl)cc3)c(-c3ccc(Cl)cc3)c12
Ki [1]: 26 nM
CLH [3]: 3.8 mL/min/g
CLH [4]: 9.5 mL/min/g

N#Cc1cc(F)cc(S(=O)(=O)c2sc3ncccc3c2-c2ccoc2)c1
Ki [1]: 13 nM
CLH [3]: 3.7 mL/min/g
CLH [4]: 4.3 mL/min/g

Nc1ccnc2sc(S(=O)(=O)c3ccc(Cl)cc3)c(-c3ccc(Cl)cc3)c12
Ki [1]: 14.8 nM
CLH [3]: 2.9 mL/min/g
CLH [4]: 10.1 mL/min/g

Cc1ccc(S(=O)(=O)c2sc3ncccc3c2-c2ccc(Cl)cc2)cc1F
Ki [1]: 11.8 nM

N#Cc1cccc(S(=O)(=O)c2sc3ncccc3c2-c2ccc(F)cc2)c1
Ki [1]: 4.5 nM
CLH [3]: 2.1 mL/min/g
CLH [4]: 9.6 mL/min/g

N#Cc1cc(F)cc(S(=O)(=O)c2sc3ncc(N)cc3c2-c2ccncc2Cl)c1
Ki [1]: 44 nM
CLH [3]: 1 mL/min/g
CLH [4]: 0.7 mL/min/g

N#Cc1cccc(S(=O)(=O)c2sc3ncccc3c2-c2cccc(F)c2)c1
Ki [1]: 4.8 nM
CLH [3]: 1.9 mL/min/g
CLH [4]: 13.9 mL/min/g

COc1ccc(S(=O)(=O)c2sc3ncccc3c2-c2ccc(Cl)cc2)cc1F
Ki [1]: 7.9 nM

From ChEMBL document CHEMBL3400086, “Thieno[2,3-b]pyridines as negative allosteric modulators of metabotropic GluR5 receptors: Lead optimization” (Bioorg Med Chem Lett, 2015)
